Source: patent US10844067B2, “Heterocyclic compounds as RET kinase inhibitors” (Cancer Research Technology Limited, priority 2016, dated 2020)
Where two headings read alike, the source gives them in different places. One block for each compound: values may come before it.

Key:
RET = RET (Homo sapiens (Human), UniProt P07949); assay: RET enzyme assay (CisBio HTRF kinEASE); format: biochemical; settings: for IC50: ATP at Km
KDR = KDR (Homo sapiens (Human), UniProt P35968); assay: KDR enzyme assay (CisBio HTRF kinEASE); format: biochemical; settings: ATP at Km
KDR, sequence (P35968 20-1356): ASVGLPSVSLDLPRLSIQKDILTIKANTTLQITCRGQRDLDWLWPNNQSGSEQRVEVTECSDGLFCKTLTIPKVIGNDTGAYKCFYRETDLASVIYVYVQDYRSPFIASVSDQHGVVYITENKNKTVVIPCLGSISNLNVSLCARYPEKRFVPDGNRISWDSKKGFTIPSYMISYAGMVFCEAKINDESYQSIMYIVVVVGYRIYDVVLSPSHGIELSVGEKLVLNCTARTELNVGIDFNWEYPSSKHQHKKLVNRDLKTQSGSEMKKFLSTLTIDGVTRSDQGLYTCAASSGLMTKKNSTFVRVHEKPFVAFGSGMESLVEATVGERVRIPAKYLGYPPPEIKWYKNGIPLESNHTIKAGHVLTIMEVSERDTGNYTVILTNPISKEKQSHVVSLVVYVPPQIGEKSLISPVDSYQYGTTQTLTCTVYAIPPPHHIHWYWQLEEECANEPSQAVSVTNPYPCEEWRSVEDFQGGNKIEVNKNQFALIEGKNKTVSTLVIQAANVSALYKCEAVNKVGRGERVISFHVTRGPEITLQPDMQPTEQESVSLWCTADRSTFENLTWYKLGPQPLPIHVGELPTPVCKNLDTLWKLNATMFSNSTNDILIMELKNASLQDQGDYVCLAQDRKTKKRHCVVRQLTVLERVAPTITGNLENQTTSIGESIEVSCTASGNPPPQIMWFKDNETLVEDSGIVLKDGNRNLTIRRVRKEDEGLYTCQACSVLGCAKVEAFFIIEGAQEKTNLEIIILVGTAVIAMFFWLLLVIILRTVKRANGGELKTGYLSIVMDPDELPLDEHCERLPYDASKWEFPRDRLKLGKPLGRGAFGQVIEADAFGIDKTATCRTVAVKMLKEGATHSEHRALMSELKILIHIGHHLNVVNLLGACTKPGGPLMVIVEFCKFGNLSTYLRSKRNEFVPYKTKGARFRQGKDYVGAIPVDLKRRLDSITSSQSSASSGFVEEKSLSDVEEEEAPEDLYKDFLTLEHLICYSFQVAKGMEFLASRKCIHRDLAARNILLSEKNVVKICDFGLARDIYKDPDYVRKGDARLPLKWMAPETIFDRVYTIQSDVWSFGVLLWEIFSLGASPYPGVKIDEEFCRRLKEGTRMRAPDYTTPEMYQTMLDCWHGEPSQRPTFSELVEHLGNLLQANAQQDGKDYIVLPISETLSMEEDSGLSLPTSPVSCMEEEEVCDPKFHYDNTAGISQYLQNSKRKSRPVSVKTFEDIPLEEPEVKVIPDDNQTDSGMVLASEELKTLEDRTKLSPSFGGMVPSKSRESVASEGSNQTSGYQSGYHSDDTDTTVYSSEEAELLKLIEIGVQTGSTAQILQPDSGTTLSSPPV

[1] = system: BaF3 cell lines expressing KDR; assay: BaF3 cell assay, KDR (CellTiter-Glo viability); format: cell-based; settings: Mus musculus, BaF3 cells expressing KDR, 48 hours
Procedure: (§1) The system originally developed by Daley and Baltimore^16 was used, whereby IL3-dependent BaF3 cells are modified to express an activated recombinant kinase. Following removal of IL3, the modified cells are dependent on the activity of the recombinant kinase for survival and proliferation. […] Following incubation of the cells for 48 hours at 37° C. in a humidified 5% CO2 atmosphere, viability was determined by addition of 10 μL CellTiter-Glo reagent (Promega) and measurement of luminescence.

[2] = system: Non-modified BaF3 cells (WT); assay: BaF3 cell assay, non-modified (WT) cells with IL3; settings: Mus musculus, BaF3, 48 h, read-out: BaF3 IC50
Procedure: as §1

RET^V804M Cell = assay: BaF3 cell assay, RET^V804M (CellTiter-Glo viability); format: cell-based; settings: Mus musculus, RET^V804M cells, 48 hours
Procedure: as §1

RET^V804M = RET^V804M (Homo sapiens (Human), UniProt P07949, V804M); assay: RET^V804M enzyme assay; format: biochemical
RET^V804M, sequence (P07949 29-1114 V804M): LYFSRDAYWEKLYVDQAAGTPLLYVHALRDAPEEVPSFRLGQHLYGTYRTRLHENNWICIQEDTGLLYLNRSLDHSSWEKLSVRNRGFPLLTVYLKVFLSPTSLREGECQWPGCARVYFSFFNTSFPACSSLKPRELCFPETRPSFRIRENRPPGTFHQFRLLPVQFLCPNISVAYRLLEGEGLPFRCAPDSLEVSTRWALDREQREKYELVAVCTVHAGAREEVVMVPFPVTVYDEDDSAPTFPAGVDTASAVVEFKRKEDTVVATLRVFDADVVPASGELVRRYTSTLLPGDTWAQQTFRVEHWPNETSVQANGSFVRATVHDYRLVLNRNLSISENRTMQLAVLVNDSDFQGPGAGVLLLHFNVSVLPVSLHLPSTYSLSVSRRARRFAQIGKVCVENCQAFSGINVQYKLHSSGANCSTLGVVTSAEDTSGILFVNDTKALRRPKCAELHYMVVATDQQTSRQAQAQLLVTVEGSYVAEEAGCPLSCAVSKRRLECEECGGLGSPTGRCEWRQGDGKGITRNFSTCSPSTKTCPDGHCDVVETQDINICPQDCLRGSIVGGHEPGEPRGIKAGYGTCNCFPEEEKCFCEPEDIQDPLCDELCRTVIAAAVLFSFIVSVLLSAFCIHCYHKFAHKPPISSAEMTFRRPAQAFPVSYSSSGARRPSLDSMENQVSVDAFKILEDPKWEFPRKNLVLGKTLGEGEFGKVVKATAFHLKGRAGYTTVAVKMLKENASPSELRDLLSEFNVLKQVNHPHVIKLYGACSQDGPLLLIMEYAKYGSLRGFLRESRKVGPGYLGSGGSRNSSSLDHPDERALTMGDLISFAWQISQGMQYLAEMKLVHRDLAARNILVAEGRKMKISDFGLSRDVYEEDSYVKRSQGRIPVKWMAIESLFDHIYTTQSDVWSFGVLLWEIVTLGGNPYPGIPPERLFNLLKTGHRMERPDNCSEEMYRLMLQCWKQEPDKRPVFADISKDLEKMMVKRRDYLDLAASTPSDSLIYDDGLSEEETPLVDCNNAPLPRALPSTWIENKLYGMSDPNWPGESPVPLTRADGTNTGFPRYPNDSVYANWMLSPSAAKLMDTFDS

[3] = target: BaF3 cell lines expressing KIF5B-RET (Homo sapiens, UniProt P07949); format: cell-based; settings: read-out: RET Cell IC50
BaF3 cell lines expressing KIF5B-RET, sequence (P07949 29-1114 limits assumed, change not shown): as the sequence (P07949 29-1114 V804M) above, with M776V counted along it
Procedure: as §1

RET, sequence (P07949 29-1114): as the sequence (P07949 29-1114 V804M) above, with M776V counted along it

desired activity in the assays described in the Examples section (RET): did not exhibit the desired activity
Compound: CC(C)(C)n1nc(-c2cc3ncccc3[nH]2)c2c(N)ncnc21 [1-tert-butyl-3-(1H-pyrrolo[3,2-b]pyridin-2-yl)pyrazolo[3,4-d]pyrimidin-4-amine]

desired activity in the assays described in the Examples section (RET): did not exhibit the desired activity
Compound: Nc1ncnc2c1c(-c1[nH]c3ncccc3c1Cl)nn2CC(=O)O [2-(4-amino-3-(3-chloro-1H-pyrrolo[2,3-b]pyridin-2-yl)-1H-pyrazolo[3,4-d]pyrimidin-1-yl)acetic acid]

desired activity in the assays described in the Examples section (RET): did not exhibit the desired activity
Compound: CC(C)CCn1nc(-c2[nH]c3ccccc3c2Cl)c2c(N)ncnc21 [3-(3-Chloro-1H-indol-2-yl)-1-isopentyl-1H-pyrazolo[3,4-d]pyrimidin-4-amine]

desired activity in the assays described in the Examples section (RET): did not exhibit the desired activity
Compound: Nc1ncnc2c1c(-c1[nH]c3ccccc3c1Cl)nn2CC1CCNC1 (centres unmarked) [3-(3-chloro-1H-indol-2-yl)-1-(pyrrolidin-3-ylmethyl)-1H-pyrazolo[3,4-d]pyrimidin-4-amine]

Compound: CS(=O)(=O)N1CCC(n2nc(-c3[nH]c4ccccc4c3Cl)c3c(N)ncnc32)CC1 [Example 4, 3-(3-Chloro-1H-indol-2-yl)-1-(1-methylsulfonyl-4-piperidyl)pyrazolo[3,4-d]pyrimidin-4-amine]
IC50 (KDR): > 30000 nM

IC50 (KDR): > 30000 nM
Compound: CC(C)(C)OC(=O)N[C@H]1CC[C@@H](n2nc(-c3cc4cccnc4[nH]3)c3c(N)ncnc32)CC1 [Example 27, tert-Butyl N-[cis-4-(4-amino-3-{1H-pyrrolo[2,3-b]pyridin-2-yl}-1H-pyrazolo[3,4-d]pyrimidin-1-yl)cyclohexyl]carbamate]

Compound: CC(C)(C)OC(=O)N[C@H]1CC[C@H](n2nc(-c3cc4cccnc4[nH]3)c3c(N)ncnc32)CC1 [Example 28, tert-Butyl (trans-4-(4-amino-3-(1H-pyrrolo[2,3-b]pyridin-2-yl)-1H-pyrazolo[3,4-d]pyrimidin-1-yl)cyclohexyl)carbamate]
IC50 (KDR): > 30000 nM

Compound: Nc1ncnc2c1c(-c1cc3cccnc3[nH]1)nn2[C@H]1CC[C@H](NC(=O)C2CC2)CC1 [Example 36, N-(trans-4-(4-Amino-3-(1H-pyrrolo[2,3-b]pyridin-2-yl)-1H-pyrazolo[3,4-d]pyrimidin-1-yl)cyclohexyl)cyclopropanecarboxamide]
IC50 (KDR): > 30000 nM

Compound: CC(C)n1nc(-c2cc3ccccc3[nH]2)c2c(N)ncnc21 [Example 44, 3-(1H-Indol-2-yl)-1-isopropyl-pyrazolo[3,4-d]pyrimidin-4-amine]
IC50 [1]: 2770 nM
IC50 [2]: 3630 nM
IC50 (KDR): 4570 nM
IC50 (RET^V804M Cell): 1470 nM
IC50 (RET^V804M): 1870 nM
IC50 (RET): 18.7 nM
IC50 ([3]; BaF3 cells expressing KIF5B-RET, 48 hours, CellTiter-Glo): 83.6 nM

Compound: Cn1nc(-c2[nH]c3ncccc3c2Cl)c2c(N)ncnc21 [Example 65, 3-(3-Chloro-1H-pyrrolo[2,3-b]pyridin-2-yl)-1-methyl-pyrazolo[3,4-d]pyrimidin-4-amine]
IC50 (RET^V804M): > 30000 nM
desired activity in the assays described in the Examples section (RET): did not exhibit the desired activity
IC50 (RET): > 30000 nM
IC50 [3]: 1010 nM

Compound: Nc1ncnc2c1c(-c1[nH]c3ncccc3c1Cl)nn2C1CCCCC1 [Example 67, 3-(3-Chloro-1H-pyrrolo[2,3-b]pyridin-2-yl)-1-cyclohexyl-pyrazolo[3,4-d]pyrimidin-4-amine]
IC50 (RET^V804M): > 30000 nM
IC50 (RET): > 30000 nM
IC50 [3]: 68.7 nM

Compound: CN(C)C1CCN(CCn2nc(-c3[nH]c4ncccc4c3Cl)c3c(N)ncnc32)CC1 [Example 77, 3-(3-Chloro-1H-pyrrolo[2,3-b]pyridin-2-yl)-1-(2-(4-(dimethylamino)piperidin-1-yl)ethyl)-1H-pyrazolo[3,4-d]pyrimidin-4-amine]
IC50 (KDR): > 30000 nM
